Experimental data taken from patent US8729228B2, “Method of producing a modified (poly) peptide” (University of Geneva, priority 2005, dated 2014).
Residues, ends and D or L forms follow the SMILES beside them. *: point of attachment. OBn = c1ccc(CO*)cc1

How the values were obtained:
[1] = test system: α-smooth muscle-actin (α-SMA); assay: α-SMA stress fibre assay in α-SMA-EGFP transfected REF-52 cells (confocal microscopy); assay type: cell-based, Rat; settings: for penetration into the cell, monitored by detection of the expected biological activity: extent measured by comparison with the biological activity of standards
Method: FIG. 15: (a) Constructs designed to deliver the Ac-EEED peptide into cells through a semi-permanent carboxy esterification strategy. (b) Rat embryonic fibroblasts (REF-52 cells) transfected with the α-SMA-EGFP construct (Clement et al., J Cell Sci. 118, 1395-1404 (2005)) were trypsinized, plated on coverslips for 1 days in DMEM/2% FCS and treated with SMA-Peptide [Ac-E(OBzl)-E(OBzl)-E(OBzl)-D(OBzl)-K(Ac)-CONH2] (5 μg/ml) for 45 min in DMEM without FCS (37 C, incubator). Cells were the rinsed in DMEM, fixed with 1% PFA, and mounted for confocal microscopy (LSM510, Carl Zeiss) observation. α-SMA-EGFP transfected cells were either untreated (control; left), or treated for 45 minutes with SMA-Peptide [Ac-E(OBzl)-E(OBzl)-E(OBzl)-D(OBzl)-K(Ac)-CONH2] (right).
This example relates to delivery of the peptide using a semi-permanent carboxy esterification strategy of a synthetic peptide incorporating a C-terminal lysine residue, whose carboxy terminus is amidated and whose epsilon amino group is either acetylated or used as a handle to attach a tracer (fluorochrome, biotin, etc, FIG. 15(a)). Four constructs have been tested, varying the lipophilicity of the protecting ester moiety.

[2] = biological target: α-smooth muscle-actin (α-SMA) (Homo sapiens, UniProt P62736); settings: microinjection (Chaponnier et al. 1995) and fusion to a PTD (Hinz et al. 2002); cited from earlier work

Molecule	α-SMA positive-stress fibers ([1]; REF-52 cells transfected with α-SMA-EGFP, 5 μg/ml for 45 min in DMEM without FCS, 37 C)	penetration into the cell, monitored by detection of the expected biological activity ([1]; listed as template)	penetration into the cell, monitored by detection of the expected biological activity ([1]; listed as template with the carboxylates esterified with benzyl groups)	blocking polymerisation of α-smooth muscle-actin (α-SMA) [2]
CC(=O)NCCCC[C@H](NC(=O)[C@H](CC(=O)OCc1ccccc1)NC(=O)[C@H](CCC(=O)OCc1ccccc1)NC(=O)[C@H](CCC(=O)OCc1ccccc1)NC(=O)[C@H](CCC(=O)OCc1ccccc1)NC(C)=O)C(N)=O [SMA-Peptide, Ac-E(OBzl)-E(OBzl)-E(OBzl)-D(OBzl)-K(Ac)-CONH2] (Ac-E(OBn)E(OBn)E(OBn)D(OBn)K(Ac)-NH2)	provokes α-SMA positive-stress fiber disappearance	incomplete	showed penetration into the cell	–
Ac-EEED	–	–	–	capable of blocking polymerisation of α-smooth muscle-actin (α-SMA)
